We go through 12 sequences from paper PMC9131871, “Impact of Micropolymorphism Outside the Peptide Binding Groove in the Clinically Relevant Allele HLA-C*14 on T Cell Responses in HIV-1 Infection” (Journal of Virology, 2022).

One assay addresses HLA-C*14:03 (Homo sapiens, UniProt P10321, A176E/A330V/A35S/A97T/C350S/D114A/D33S/L171W/L180R/L218V/M285V/M309V/M331V/P208H/Q277E/Q291P/R121W/R243W/R45H/S123F/S297R/S48A/T329A/T363A/V319A). Briefly: LC-MS/MS identification of HLA-bound HIV-1 peptides from NL4-3-infected .221-C1403 cells. The format is binding. Also noted: key: ●: Closed circles indicate the peptide which was identified in HLA-C*1402 or/and -C*1403 expressing cells. To be noted: HIV-1 NL4-3-infected .221-C1403 cells, W6/32 immunoprecipitation, two independent replicate experiments. The protocol: (§1) 721.221 cells expressing CD4 and HLA-C*14:02 (.221-C1402) or HLA-C*14:03 (.221-C1403) were infected with the laboratory-adapted NL4-3 HIV-1 strain. HLA-peptide complexes were isolated from cell lysates by immunoprecipitation with the anti-HLA class I antibody W6/32; then, peptides were eluted, fractionated by high-performance liquid chromatography (HPLC), and finally analyzed by LC-MS/MS. Two independent replicate experiments were performed, in which a total of 7,970 and 8,447 unique 8- to 13-mer peptide sequences were identified from .221-C1402 and .221-C1403 cells, respectively (Fig. 1A). Of these peptides, 6,163 were identified in both the C*14:02- and C*14:03-bound peptide data sets, while other peptides were detected in the acid-eluted fraction from only a single allele. […] These motifs are consistent with the HLA-C*1402/03 peptide motifs previously estimated using reported epitopes ([29]).
(§2) .221-C1402 and .221-C1403 cells were infected with HIV-1 NL4-3 in a low volume of RPMI 1640 medium (Thermo Fisher) containing 10% fetal bovine serum (FBS), 2 mM L-glutamine, 100 U/mL penicillin, 100 μg/mL streptomycin, and 10 mM HEPES (R10). Fifty microliters of NL4-3 stock virus (Reverse transcriptase activity (RT) value = 4 × 10^2 ng/mL) was added to 8 × 10^6 .221-C1402 cells or .221-C1403, and the cells were then incubated for 1.5 h at 37°C, after which 20 mL of R10 was added and the cells were cultured overnight. At day 1 postinfection, a further 20 mL R10 was added, and cells were split (1:2) on day 2. On day 3 postinfection, the proportion of cells infected with HIV-1 was determined by intracellular p24 staining, as previously described ([46]). Infected flasks were then harvested for immunoprecipitation of HLA-peptide complexes.
(§3) .221-C1402 cells or .221-C1403 cells infected with NL4-3 (1.5 × 10^8 to 2 × 10^8 cells) were harvested, washed in phosphate-buffered saline (PBS), and lysed in 5 mL of lysis buffer (1% IGEPAL 630, 300 mM NaCl, 100 mM Tris [pH 8.0], plus protease inhibitors) at 4°C for 45 min. Two centrifugation steps (2,000 × g for 10 min followed by 20,000 × g for 30 min at 4°C) were next employed to clear the lysates of cell debris prior to overnight capture of HLA-peptide complexes on W6/32-coated protein A‐Sepharose beads. W6/32-bound HLA-peptide complexes were sequentially washed with 10 to 20 mL of wash buffer 1 (0.005% IGEPAL, 50 mM Tris [pH 8.0], 150 mM NaCl, 5 mM EDTA), wash buffer 2 (50 mM Tris [pH 8.0], 150 mM NaCl), wash buffer 3 (50 mM Tris [pH 8.0], 400 mM NaCl), and finally wash buffer 4 (50 mM Tris [pH 8.0]) under gravity flow in Econo-Column glass chromatography columns (Bio-Rad). Peptide-HLA complexes were eluted from the beads with 5 mL of 10% acetic acid and, after drying under vacuum, were loaded onto a 4.6- by 50-mm ProSwift RP-1S column (Thermo Fisher Scientific) and eluted from an Ultimate 3000 HPLC system (Thermo Scientific) using a 500-μL/min flow rate over 10 min from 2% to 34% buffer B (0.1% trifluoroacetic acid [TFA] in acetonitrile) in buffer A (0.1% TFA in water). Alternate fractions were pooled to give two final peptide fractions that were dried for LC-MS/MS analysis.
(§4) Each HPLC-eluted sample was resuspended in 20 μL loading buffer, and 9 μL of it was injected onto a 3-μm-particle-size 0.075-mm by 150-mm Acclaim PepMap RSLC C18 column and further loaded onto a 2-μm-particle-size, 75-μm by 50-cm Acclaim PepMap RSLC C18 column using an Ultimate 3000 nUPLC system (Thermo Scientific). A linear gradient of 3 to 25% buffer B (0.1% formic acid, 5% dimethyl sulfoxide [DMSO] in acetonitrile) in buffer A (0.1% formic acid, 5% DMSO in water) was applied over 1 h to elute peptides from the column (flow rate of […]). Peptides were introduced, using an Easy-Spray source at 2,000 V at 40°C, into a Fusion Lumos mass spectrometer (Thermo Scientific). The ion transfer tube temperature was set to 305°C. […]

Another assay concerns the target HLA-C*14:02 (Homo sapiens, UniProt P10321, A176E/A330V/A35S/A97T/C350S/D114A/D33S/L171W/L180R/L218V/M285V/M309V/M331V/P208H/Q277E/Q291P/R121W/R243W/S123F/S297R/S48A/T329A/T363A/V319A). Description: LC-MS/MS identification of HLA-bound HIV-1 peptides from NL4-3-infected .221-C1402 cells. In kind it is binding. The arrangement: key: ●: Closed circles indicate the peptide which was identified in HLA-C*1402 or/and -C*1403 expressing cells. To be noted: HIV-1 NL4-3-infected .221-C1402 cells, W6/32 immunoprecipitation, two independent replicate experiments. The protocol: as §1, §2, §3, §4

For “RFDSRLAF [Nef RF8, HIV-1 NL4-3 Nef 184–191 peptide RFDSRLAF]”, the “C1403: peptide identified by LC-MS/MS in HLA-I eluate” value (shortened to “C1403: peptide identified by LC-MS/MS”) on HLA-C*14:03 is “●”. For the same sequence, the “C1402: peptide identified by LC-MS/MS in HLA-I eluate” value (shortened to “C1402: peptide identified by LC-MS/MS”) on HLA-C*14:02 is listed as “●”.

With “ASGYIEAEV [Pol AV9, HIV-1 NL4-3 Pol 795–803 peptide …]”, at HLA-C*14:03, the “C1403: peptide identified by LC-MS/MS” value is “●”.

As to LYNTIAVLY [Gag LY9], the “C1403: peptide identified by LC-MS/MS” value at HLA-C*14:03 was “●”. On HLA-C*14:02, the “C1402: peptide identified by LC-MS/MS” value is on record as “●”.

On to AFSPEVIPM [Gag AM9], for which, at HLA-C*14:02, the “C1402: peptide identified by LC-MS/MS” value is “●”.

For “FFREDLAF [Pol FF8, HIV-1 NL4-3 Pol 1–8 peptide FFREDLAF]”, the “C1403: peptide identified by LC-MS/MS” value at HLA-C*14:03 is “●”.

Consider “VYYDPSKDL [Pol VYL9, HIV-1 NL4-3 Pol 472–480 peptide …]”, for which the “C1403: peptide identified by LC-MS/MS” value on HLA-C*14:03 is “●”. The “C1402: peptide identified by LC-MS/MS” value on HLA-C*14:02 is reported as “●”.

Take IYHTQGYF [Nef IF8]: the “C1403: peptide identified by LC-MS/MS” value at HLA-C*14:03 was “●”. In addition, at HLA-C*14:02, the “C1402: peptide identified by LC-MS/MS” value is on record as “●”.

Turning to KYHSNWRAM [Pol KM9], the “C1403: peptide identified by LC-MS/MS” value at HLA-C*14:03 is reported as “●”. Also, on HLA-C*14:02, the “C1402: peptide identified by LC-MS/MS” value was “●”.

For “FLGAAGSTM [Env FM9, HIV-1 NL4-3 Env 522–530 peptide …]”, the “C1403: peptide identified by LC-MS/MS” value at HLA-C*14:03 was “●”. Further, the “C1402: peptide identified by LC-MS/MS” value at HLA-C*14:02 is reported as “●”.

For the sequence “FMTKALGI [Tat FI8, HIV-1 NL4-3 Tat 38–45 peptide FMTKALGI]”, the “C1403: peptide identified by LC-MS/MS” value at HLA-C*14:03 is reported as “●”.

As to YFPDWQNYT [Nef YT9], the “C1403: peptide identified by LC-MS/MS” value at HLA-C*14:03 is “●”. Also, the “C1402: peptide identified by LC-MS/MS” value at HLA-C*14:02 was “●”.

Take AFHHVAREL [Nef AL9]: the “C1403: peptide identified by LC-MS/MS” value on HLA-C*14:03 is on record as “●”. Also, the “C1402: peptide identified by LC-MS/MS” value at HLA-C*14:02 is recorded as “●”.
